Laboratory results as given in US7501523B2, “Method for preparing cucurbiturils” (NewSouth Innovations Pty Limited, priority 2003, dated 2009).

Experiments:
[1] = association constant of methane in the cucurbituril; format: binding; settings: relative to decamethylcucurbit[5]uril
[2] = association constant of dioxane in the cucurbituril; format: binding; settings: relative to tetramethylcucurbit[2,4]uril
solubility in water = format: physicochemical; settings: compared with unsubstituted cucurbit[6]uril

## dimethylcucurbit[1,4]uril
[1]
  association constant of methane: three times higher

## unsubstituted cucurbit[6]uril
[2]
  association constant of dioxane: two times higher

## α, δ-tetramethylcucurbit[2,4]uril
Solubility in water
  solubility in water: greater solubility in water than unsubstituted cucurbit[6]uril
